How the values were obtained:
[1] = system: Botrytis cinerea (isolate BcI16); assay: Gray mold on attached leaves of tomato plants treated by spray or drench; assay type: in vivo; conditions: for B. cinerea infection (disease severity): 0.5 mM, spraying
Experimental: Tomato plants (tomato cultivar-Brigate) were grown from seeds in a nursery and transplanted into 1 liter pots at 40 to 50 days following seeding in an unheated greenhouse. Plants were fertilized proportionally with drippers 2-3 times per day with 5:3:8 NPK fertilizer (irrigation water was planned to have total N, P and K concentrations of 120, 30 and 150 mg/L, respectively; EC 2.2 dS/m), allowing for 25-50% drainage. Plants were maintained at 20-30° C. with natural light, and relative humidity of 50-90% in a pest- and disease-free greenhouse during the growth period and then transferred to an area where disease was allowed to develop following pathogen infection on intact leaves as described below.
Botrytis cinerea [Pers.:Fr. [Teleomorph: Botryotinia fuckeliana (de Bary) Whetzel] (isolate BcI16; [Swartzberg D. et al., Eur. J. Plant Pathol., 2008, 120:289-297])] was cultured on potato dextrose agar (PDA, Difco, Detroit, MI) in 90 mm diam. petri plates containing 15 ml PDA each and incubated at 20° C. The inoculum was maintained on PDA and transferred every two weeks. Gray mold conidia were harvested from 10 to 14 day-old cultures by agitating 1 cm^2 of agar bearing mycelium and conidia in a glass tube with tap water. The suspension was then filtered through cheesecloth. The concentration of conidia was determined using a haemocytometer and a light microscope, and adjusted to 5×10^5 conidia/ml. Since B. cinerea conidia need carbon and phosphate for germination and penetration, 0.1% glucose was added to the final conidial suspension together with 0.1% KH2PO4.
Plant attached tomato leaves were examined. Whole plants were kept in a humidity chamber at 22±1° C., 97±3% RH, and 1020 lux light intensity. Plants were infected by placing 10 μL drops of a 5×10^5 conidia/ml suspension, 5 drops/leaf (one drop on each leaflet), on two mature leaves.
Disease severity was evaluated on each plant using a pictorial key; 0=no infection (infection site is symptomless) and 100=all infection site fully covered by gray mold symptoms. The analyses were performed in the mentioned plants.
Phenylalanine treatment consisted of either spray or drench at concentrations of 0.5-4.1 mM administrated 3 and 0 days before infection with B. cinerea. Control plants were treated by water and kept under the same conditions as mentioned above.
Treatments in experiments were replicated 5 times. Replicates of each treatment were arranged randomly. Disease severity data in percentages were arcsin-transformed before further analysis. Disease severity data were analyzed using ANOVA and Fisher's protected LSD test and disease levels were statistically separated (P≤0.05) following a one-way analysis of variance.
Specifically, tomato plants were sprayed with increasing concentrations of Phe solutions (0.5-30 mM aquatic solution of Phe, no detergent) and percent disease severity was determined 11 days following treatment.

[2] = system: Alternaria alternata; assay: Postharvest avocado fruit dip, inoculation with Alternaria alternata; assay type: in vivo; conditions: avocado 'Ettinger', dip 30 seconds at 1-4 mM, 6 days post inoculation, 23° C.
Experimental: FIG. 8 are images of avocado fruits of the cultivar ‘Ettinger’ dipped in water or 1 mM or 4 mM phenylalanine for 30 seconds and stored for one day at 5° C. Then the avocado fruit were inoculated by wounding at the fruit equatorial with […] of spore suspension of Alternaria alternata at the concentration of 10^5 conidia/ml at two sides of the fruit. The fruits were stored at 23° C. The decay area was monitored during 6 days post inoculation. Clearly, the fruit treated with Phe solutions, postharvest show
Avocado fruits of the cultivar ‘Ettinger’ were dipped in water or 1 mM or 4 mM phenylalanine for 30 seconds and stored for one day at 5° C. Then the avocado fruit were inoculated at the fruit equatorial with Alternaria alternata at the concentration of 10^5 conidia/ml at two sides of the fruit. The decay area was monitored during 6 days post inoculation, while incubation at 23° C.

[3] = system: Plenodomus tracheiphilus syn Phoma tracheiphila; assay: Lemon plants in pots, mal secco disease after leaf wounding and conidia infection; assay type: in vivo; conditions: 4 mM, drenching 10 ml per pot or spraying
Experimental: Phe concentration used was 4 mM. Results are presented by disease incidence of infection sites as percent resulting from drench treatment (lower FIG. 7A) and spray treatment (upper FIG. 7A)
Lemon plants in pots were treated with 4 mM Phe water solutions either by drenching 10 ml of solution per pot or spraying, as described for tomato. Infection was carried out by conidia suspension of Plenodomus tracheiphilus after leaf wounding by a needle. Disease incidence was evaluated according to the amount of successful infection sites on the infected leaves and presented as percent of infected leaves.

[4] = system: Sclerotinia sclerotiorum; assay: Sweet basil plants in pots, white rot after mycelium disc inoculation; assay type: in vivo; conditions: 4.1 mM, spray or drench
Experimental: Phe concentration used was 4.1 mM. Results are presented by disease severity scoring of AUDPC (area under disease progress curve during 6 days after infection) where the severity is marked by units of rot diameter (mm) multiplied by the time of incubation.
Sweet basil plants in pots were treated with 4.1 mM Phe as described for tomato, and inoculated with a S. sclerotiorum mycelium disc from 4 days potato dextrose agar culture (White rot), related to botrytis, both being from the Ascomycota division.

[5] = system: B. cinerea; assay: Cut Ruscus branches drenched or dipped in Phe, leaves wounded and inoculated with B. cinerea; assay type: in vivo, Botrytis cinerea; conditions: whole branches dipped for an hour in 6 mM
Experimental: Ruscus branches serve as an ornamental decorative. These plants are very susceptible to Botrytis. Cut branches were treated with Phe either by drenching the tip of the cut branch in the Phe solution (FIG. 4B), or dipping the whole cut branch in Phe solution for an hour before dipping it in water and inoculating with botrytis. In both treatments the concentration used was 6 mM phenylalanine, and for the drenching treatment an additional concentration of 20 mM was added (FIG. 4A). For the dipping experiment 50 ppm T.O.G-6 was added to the Phe solution to prevent bacterial growth during the days of the experiment. Control branches were drenched in water and dipped in water with 50 ppm T.O.G-6. Ruscus leaves were wounded and inoculated with B. cinerea as described in the above Examples. Decay area (mm*2) results are presented as averages of 10 replications with each being a leaf from one of 10 branches±SE.

[6] = system: B. cinerea; assay: Whole petunia plants sprayed or pots drenched, leaves inoculated with B. cinerea; assay type: in vivo, Botrytis cinerea; conditions: for B. cinerea infection (decay area): 0.5 mM, spraying
Experimental: Inoculation with B. cinerea was performed 3 days after Phe treatment. In this case only one Phe treatment was performed however multiple treatments can be used e.g., first-three days prior to inoculation and a second one on the day of inoculation (data not shown but results are similar). 18 leaves were inoculated with B. cinerea, as described above. The plants were covered with a nylon bag and kept in the light and 22° C. (as above).
Commercial petunia plants (‘Dream Heaven’) were treated as described above in Example 3, either by spraying the plants (FIG. 3A) or drenching the pots (FIG. 3B), this time with increasing concentrations of Phe (6-50 mM).

[7] = system: Sclerotinia sclerotiorum; assay: Tomato leaves, white rot after spray or drench treatment; assay type: in vivo; conditions: spray and drench, 4 mM
Experimental: Phe concentration used was 4 mM. Results are presented by disease severity scoring of AUDPC (area under disease progress curve during 15 days after infection) where the severity is marked by units of rot area (mm^2) multiplied by the time of incubation.

[8] = system: Pythium aphanidermatum; assay: Cucumber plantlets, damping off disease after drench; assay type: in vivo; conditions: 4 mM drench
Experimental: Phe concentration used was 4 mM. Results are presented by the percentage of dead plants incidence (FIG. 9A). FIG. 9B: control treatment=lower row and Phe treatment=upper row.
Cucumber plantlets cv. Bet Alpha and grown in peat based growing medium were treated either by drenching 4 mM phenylalanine solution, 10 ml per pot containing 4 plants each. and the percent plantlets that survived was determined in each treatment. […] FIG. 9B presents two pots of each treatment; Pots in the lower row were not treated and pots in upper row were treated with 4 mM Phe.

[9] = system: Botrytis cinerea strain BO-05; assay: Detached petunia leaves dipped in Phe, wound inoculated with B. cinerea conidia; assay type: in vivo; conditions: 15 mM Phe dip, 7 days post inoculation, vs non-treated controls
Experimental: Petunia (Petunia×hybrida) V26 variety, and a commercial white flowered cultivar (Dream White) cultivars were used. Petunia plants were grown as described in Oliva et al., (2015). Arabidopsis plants were grown as described in Tzin et al., (2012).
Conidia of Botrytis cinerea strain BO-05 were grown on PDA medium for 10 days. Conidia were gently collected from the plate in sterile water and were diluted to 10^6 conidia/ml. Fresh leaves of similar age and size of Petunia or Arabidopsis were detached from the plant, washed with water and placed in a humid chamber, under artificial light at 22° C. The upper side of the leaves was wounded (1-2 mm) and 5 μl drops of conidia suspension at a concentration of 10^6 conidia/ml were placed on the artificial wound. Decay diameter was measured following inoculation in specific days post inoculation (dpi) as detailed in the results.
Petunia leaves were dipped for 10 min in double distilled water with 0.02% Silwett L-77 surfactant supplemented either with 15 mM or 0 mM phenylalanine. Leaves were then placed in a humid box, and wound inoculated with B. cinerea was performed as described above.
In an independent experiment the decay diameter of detached leaves of wild type petunia (V26 cultivar) treated with 15 mM Phe or with […]. […]
Necrotic area was measured at 3, 4 and 7 days post inoculation (dpi). […]

Row | SMILES | effect of adding a surfactant on resistance to B. cinerea ([1]; 0.5 mM Phe with 0.01% Tween 80 vs without) | B. cinerea infection (disease severity) [1] | disease severity (gray mold) ([1]; drench to the root zone, 0.5 to 4.1 mM) | duration of resistance ([1]; spray, 20 and 30 mM (results not shown)) | disease severity (gray mold) ([1]; sprayed on the plants, 1.0 to 4.1 mM) | area of brown spots [2] | resistance of the plant leaves to the fungus (disease incidence) [3] | disease symptoms (white rot) [4] | resistance to botrytis (decay area) [5] | resistance of the plants to B. cinerea at higher concentrations ([6]; petunia 'Dream Heaven', spray or drench, 6-50 mM) | B. cinerea infection (decay area) ([6]; petunia) | decay area ([6]; petunia, 35 and 50 mM, 7 days after spraying and 10 days after drenching) | degree of resistance, 4.1 mM compared with 6 mM ([6]; whole petunia plants, 4.1 mM Phe vs 6 mM Phe) | tolerance to B. cinerea (decay area) ([6]; whole petunia plants, spraying or drenching, 6 mM, inoculation 3 days after treatment) | resistance of tomato leaves to white rot [7] | tolerance to Pythium aphanidermatum (percentage of dead plants) [8] | diameter of decay [9]
1 | N[C@@H](Cc1ccccc1)C(=O)O [Phe, Phenylalanine] | improved the effect of increased resistance | reduced B. cinerea infection | reduced significantly | increased resistance for a longer period of time | reduced significantly | reduced the area of brown spots caused by Alternaria alternata by four folds | increased the resistance | significant reduction in disease symptoms | increased resistance of the plants to botrytis significantly | increased resistance | reduced B. cinerea infection | no increased decay area | a little lower | Increases Tolerance | increase the resistance | increased tolerance | significantly smaller
2 | N[C@@H](Cc1ccc(O)cc1)C(=O)O [Tyr, Tyrosine] | – | reduced B. cinerea infection | – | – | – | – | – | – | – | – | reduced B. cinerea infection | – | – | – | – | – | –
